The text below walks through data of publication PMC10099813, “Stafiba: A STAT5‐Selective Small‐Molecule Inhibitor” (Chembiochem, 2022).

The target of one test is T1, STAT4 (Homo sapiens, UniProt Q14765).
T1 sequence (Q14765 1-748): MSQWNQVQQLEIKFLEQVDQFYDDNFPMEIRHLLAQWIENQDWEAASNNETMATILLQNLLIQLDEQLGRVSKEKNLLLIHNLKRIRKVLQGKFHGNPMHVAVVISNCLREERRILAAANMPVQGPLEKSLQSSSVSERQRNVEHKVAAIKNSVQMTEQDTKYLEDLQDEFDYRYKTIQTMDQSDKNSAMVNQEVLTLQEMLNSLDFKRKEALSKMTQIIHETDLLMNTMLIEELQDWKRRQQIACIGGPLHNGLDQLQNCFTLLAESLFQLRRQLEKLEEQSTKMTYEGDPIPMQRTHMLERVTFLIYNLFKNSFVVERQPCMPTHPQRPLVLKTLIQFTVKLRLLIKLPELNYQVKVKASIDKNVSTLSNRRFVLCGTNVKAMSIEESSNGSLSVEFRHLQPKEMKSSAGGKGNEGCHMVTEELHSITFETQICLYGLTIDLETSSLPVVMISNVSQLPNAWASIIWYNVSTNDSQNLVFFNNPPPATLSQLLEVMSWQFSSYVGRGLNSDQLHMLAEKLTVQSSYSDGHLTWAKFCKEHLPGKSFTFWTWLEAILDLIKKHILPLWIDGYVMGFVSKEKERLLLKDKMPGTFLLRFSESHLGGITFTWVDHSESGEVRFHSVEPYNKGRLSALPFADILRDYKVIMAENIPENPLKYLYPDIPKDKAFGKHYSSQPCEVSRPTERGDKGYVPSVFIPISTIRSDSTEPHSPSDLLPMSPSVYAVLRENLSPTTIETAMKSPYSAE
Kind of test: Competitive fluorescence polarization (FP) binding assay, STAT4. The conditions noted are these: for IC50: 2 % DMSO for 5, 10 % DMSO for 10; for Ki: Ki calculated from IC50, 2 % DMSO for 5, 10 % DMSO for 10. The protocol:
(§1) Fluorescence polarization assays: Competitive binding assays based on fluorescence polarization were carried out essentially as previously described.[[4a]] Unless stated otherwise, final concentrations of the buffer components were: 10 mM Tris (pH 8.0), 50 mM NaCl, 1 mM EDTA, 1 mM DTT, 0.1 % (v/v) Nonidet P‐40 substitute, and 2 % DMSO. Proteins were used at concentrations which reflect the Kd values of the interactions between the fluoropeptide and the protein preparations. Protein concentrations used for activity analysis of compound 5 were 91 nM for STAT1, 107 nM for STAT3, 28 nM for STAT4, 122 nM for STAT5a, 56 nM for STAT5b and 101 nM for STAT6. Protein concentrations used for activity analysis of AC‐4‐130 were 103 nM for STAT5a and 62 nM for STAT5b. […] Final concentration of all fluorescent‐labelled peptides was 10 nM. The following peptides were used in assays: 5‐carboxyfluorescein‐GpYDKPHVL for STAT1; 5‐carboxyfluorescein‐GpYLPQTV‐NH2 for STAT3; 5‐carboxyfluorescein‐GpYLPQNID for STAT4; 5‐carboxyfluorescein‐GpYLVLDKW for STAT5a/5b, and 5‐carboxyfluorescein‐GpYVPWQDLI for STAT6. Protein and test compounds were incubated for 1 h prior to addition of the fluorescein‐labeled peptide. Fluorescence polarization was measured after another 60 min using an Infinite F500 plate reader (Tecan). IC50 values were converted to Ki‐values using the published equation.[13]

The target in the next test is STAT3 (Homo sapiens, UniProt P40763). Kind of test: Competitive fluorescence polarization (FP) binding assay, STAT3. The conditions noted are these: 2 % DMSO for 5, 10 % DMSO for 10. The protocol:
as §1
For orientation: Fluorescence polarisation rises when a labelled molecule tumbles more slowly, as on binding a larger partner.

The next test has as its target T2, STAT5b (Homo sapiens, UniProt P51692).
T2 sequence (P51692 1-787): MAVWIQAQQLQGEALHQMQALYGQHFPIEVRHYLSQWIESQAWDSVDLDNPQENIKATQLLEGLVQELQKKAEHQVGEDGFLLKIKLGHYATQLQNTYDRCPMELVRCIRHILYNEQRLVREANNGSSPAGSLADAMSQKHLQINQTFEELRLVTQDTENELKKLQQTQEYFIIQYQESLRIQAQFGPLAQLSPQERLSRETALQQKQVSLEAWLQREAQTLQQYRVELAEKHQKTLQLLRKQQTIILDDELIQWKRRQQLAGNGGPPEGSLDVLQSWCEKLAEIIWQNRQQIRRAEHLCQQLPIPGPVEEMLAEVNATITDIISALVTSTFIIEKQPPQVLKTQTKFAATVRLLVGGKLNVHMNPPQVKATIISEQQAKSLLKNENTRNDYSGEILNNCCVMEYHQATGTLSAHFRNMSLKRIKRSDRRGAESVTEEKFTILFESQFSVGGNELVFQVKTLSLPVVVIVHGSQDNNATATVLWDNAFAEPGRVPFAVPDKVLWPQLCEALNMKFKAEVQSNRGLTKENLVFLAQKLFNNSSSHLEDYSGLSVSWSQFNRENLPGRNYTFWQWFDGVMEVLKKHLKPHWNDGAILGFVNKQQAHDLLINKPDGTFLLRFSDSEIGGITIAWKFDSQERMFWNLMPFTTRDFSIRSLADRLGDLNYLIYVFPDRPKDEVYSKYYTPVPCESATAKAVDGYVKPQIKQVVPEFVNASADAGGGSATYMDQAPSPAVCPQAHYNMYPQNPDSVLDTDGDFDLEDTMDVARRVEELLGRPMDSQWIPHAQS
As to the kind of experiment: Competitive fluorescence polarization (FP) binding assay, STAT5b SH2 domain. The conditions noted are these: for Ki / IC50: FP assay, 2 % DMSO (10 % DMSO for 10); for Ki: Ki calculated from IC50 (n=3) via published equation; for IC50: n=3; for selectivity for STAT5b over STAT1, STAT3, and STAT6: FP assays. The protocol:
as §1

STAT3, sequence (P40763 whole entry, species assumed): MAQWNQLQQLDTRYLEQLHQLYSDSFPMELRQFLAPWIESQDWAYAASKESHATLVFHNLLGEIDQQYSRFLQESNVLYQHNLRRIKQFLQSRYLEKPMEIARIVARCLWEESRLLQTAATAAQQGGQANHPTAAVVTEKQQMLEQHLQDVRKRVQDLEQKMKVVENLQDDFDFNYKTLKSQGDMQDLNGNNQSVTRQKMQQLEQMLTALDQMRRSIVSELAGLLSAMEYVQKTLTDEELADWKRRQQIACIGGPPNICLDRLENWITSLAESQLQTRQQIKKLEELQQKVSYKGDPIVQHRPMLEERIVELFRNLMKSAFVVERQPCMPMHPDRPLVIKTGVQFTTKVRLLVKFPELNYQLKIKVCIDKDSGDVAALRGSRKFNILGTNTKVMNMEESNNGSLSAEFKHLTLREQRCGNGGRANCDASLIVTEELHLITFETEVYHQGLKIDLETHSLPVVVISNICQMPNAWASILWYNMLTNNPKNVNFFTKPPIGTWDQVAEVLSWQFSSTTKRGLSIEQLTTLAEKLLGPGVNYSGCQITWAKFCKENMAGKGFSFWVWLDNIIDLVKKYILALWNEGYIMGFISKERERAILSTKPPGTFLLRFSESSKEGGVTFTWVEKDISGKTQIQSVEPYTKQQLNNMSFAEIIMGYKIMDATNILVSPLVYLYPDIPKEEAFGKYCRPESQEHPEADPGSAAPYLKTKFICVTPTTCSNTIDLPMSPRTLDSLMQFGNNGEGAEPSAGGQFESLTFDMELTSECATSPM

As usually defined, the IC50 is the concentration that gives 50% inhibition. A high value points to a need for much substance. In general, Ki refers to a dissociation constant, usually derived from enzyme kinetics or from competition with a known ligand. The term inhibition denotes the change of the read-out against control, counted positive when it falls. High values mean a response far below the control, low ones a response near the control. For the molecule `O=C(CNc1ccc(C(=O)Nc2ccc(Oc3ccccc3)cc2)cc1)NCc1cc(C(F)(F)P(=O)(O)O)c(F)c(C(F)(F)P(=O)(O)O)c1` [compound 10], at STAT4, the IC50 was 11.2 ± 1.2 µM and the inhibition constant Ki is 5.3 ± 0.6 µM. On STAT3, the inhibition at 100 µM was found to be 49 ± 3%. Also, on STAT5b, the inhibition constant (Ki) is 1800 ± 100 nM; the IC50 was found to be 3.7 ± 0.2 µM; the “selectivity for STAT5b over STAT1, STAT3, and STAT6” value is recorded as 10–20 fold. Also, at STAT5b (Figure 5C), the “activity compared with AC-4-130 in FP assay against the SH2 domain of STAT5b” value is reported as “substantially more active than AC‐4‐130”.
Take `O=C(CNc1ccc(C(=O)Nc2ccc(Oc3ccccc3)cc2)cc1)NCc1cc(OP(=O)(O)O)cc(OP(=O)(O)O)c1` [compound 5]: at STAT4, the IC50 was 11.3 ± 2.7 µM and the Ki is 5.3 ± 1.3 µM. This molecule displayed an inhibition at 100 µM on STAT3 of 33 ± 11%. Besides, at STAT5b, the Ki was 1500 ± 100 nM; the IC50 worked out at 3.1 ± 0.3 µM; the “selectivity for STAT5b over STAT1, STAT3, and STAT6” value is given as “more than tenfold”.
